Article PMC9848300, “Discovery of novel enasidenib analogues targeting inhibition of mutant isocitrate dehydrogenase 2 as antileukaemic agents” (Journal of Enzyme Inhibition and Medicinal Chemistry, 2023)
Read-outs that look alike come from different tables or passages of the source.

Columns and labels:
[1] = test system: CCRF-CEM; experiment: NCI 60 antitumor screening (single dose / five doses); assay type: cell-based; details: Homo sapiens; for inhibition at 10 µM: read-out: Growth inhibition percentage (GI %)
[2] = test system: HL-60(TB); experiment: as above; assay type: cell-based; details: Homo sapiens
[3] = test system: K-562; experiment: as above; assay type: cell-based; details: Homo sapiens
[4] = test system: MOLT-4; experiment: as above; assay type: cell-based; details: Homo sapiens
[5] = test system: RPMI-8226; experiment: as above; assay type: cell-based; details: Homo sapiens
[6] = test system: SR; experiment: as above; assay type: cell-based; details: Homo sapiens; for inhibition at 10 µM: read-out: Growth inhibition percentage (GI %)
[7] = test system: HOP-92; experiment: as above; assay type: cell-based; details: Homo sapiens
[8] = test system: HS 578T; experiment: NCI 60 antitumor screening (single dose); assay type: cell-based; details: Homo sapiens; HS 578T (breast cancer), single dose 10 μM; read-out: Growth inhibition percentage (GI %)
In short: (§1)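 Read-out is percent growth (G%) of treated cancer cells relative to untreated, converted to percent inhibition as 100 − G%. Each compound was applied once at 10 μM across 60 human tumour lines under the NCI protocol.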

[9] = test system: M14; experiment: NCI 60 antitumor screening (single dose); assay type: cell-based; details: Homo sapiens; M14 (melanoma), single dose 10 μM; read-out: Growth inhibition percentage (GI %)
In short: as §1

[10] = test system: TK-10; experiment: NCI 60 antitumor screening (single dose); assay type: cell-based; details: Homo sapiens; TK-10 (renal cancer), single dose 10 μM; read-out: Growth inhibition percentage (GI %)
In short: as §1

[11] = test system: HCT-116; experiment: NCI 60 antitumor screening (single dose / five doses); assay type: cell-based; details: Homo sapiens
[12] = test system: HCT-15; experiment: as above; assay type: cell-based; details: Homo sapiens
[13] = test system: HT29; experiment: as above; assay type: cell-based, human; details: Homo sapiens
[14] = test system: SF-539; experiment: as above; assay type: cell-based; details: Homo sapiens
[15] = test system: SNB-75; experiment: as above; assay type: cell-based; details: Homo sapiens
[16] = test system: LOX IMVI; experiment: as above; assay type: cell-based; details: Homo sapiens; for inhibition at 10 µM: read-out: Growth inhibition percentage (GI %)
[17] = test system: MALME-3M; experiment: as above; assay type: cell-based; details: Homo sapiens; for inhibition at 10 µM: read-out: Growth inhibition percentage (GI %)
[18] = test system: MDA-MB-435; experiment: as above; assay type: cell-based; details: Homo sapiens
[19] = test system: UACC-257; experiment: as above; assay type: cell-based; details: Homo sapiens
[20] = test system: UACC-62; experiment: as above; assay type: cell-based; details: Homo sapiens
[21] = test system: NCI/ADR-RES; experiment: as above; assay type: cell-based; details: Homo sapiens; for inhibition at 10 µM: read-out: Growth inhibition percentage (GI %)
[22] = test system: 786-0; experiment: as above; assay type: cell-based; details: Homo sapiens
[23] = test system: ACHN; experiment: as above; assay type: cell-based; details: Homo sapiens; for inhibition at 10 µM: read-out: Growth inhibition percentage (GI %)
[24] = test system: SN 12C; experiment: as above; assay type: cell-based; details: Homo sapiens, SN12C; for inhibition at 10 µM: read-out: Growth inhibition percentage (GI %)
[25] = test system: UO-31; experiment: as above; assay type: cell-based; details: Homo sapiens
[26] = test system: MDA-MB-231/ATCC; experiment: as above; assay type: cell-based; details: Homo sapiens
[27] = test system: BT-549; experiment: as above; assay type: cell-based; details: Homo sapiens
[28] = test system: T-47D; experiment: as above; assay type: cell-based; details: Homo sapiens, T47D; for inhibition at 10 µM: read-out: Growth inhibition percentage (GI %)
[29] = test system: 60 human subpanel cancer cell lines; experiment: NCI 60 antitumor screening, mean over the panel (single dose); assay type: cell-based; details: mean over 60 cancer cell lines, single dose 10 μM
In short: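 NCI-60 protocol: single 10 μM dose against each cell line, run in triplicate. Percent growth (G%) of treated cells measured and growth inhibition reported as GI% = 100 − G%; panel mean also given.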

`O=[N+]([O-])c1cccc(/C=N/Nc2nc(N/N=C/c3cccc([N+](=O)[O-])c3)nc(N3CCCCC3)n2)c1` [compound 7f, 2,4-Bis[(E)-2-[(3-Nitrophenyl)methylidene]hydrazin-1-yl]-6-(piperidin-1-yl)-1,3,5-triazine] gave an inhibition at 10 µM ([1]; CCRF-CEM) of 65.1%, an inhibition at 10 µM ([2]; HL-60, read-out: Growth inhibition percentage (GI %)) of 42.8% and an inhibition at 10 µM ([3]; K562, read-out: Growth inhibition percentage (GI %)) of 67.6%. The inhibition at 10 µM ([4]; MOLT-4, read-out: Growth inhibition percentage (GI %)) was 57.2%, the inhibition at 10 µM ([5]; RPMI-8226, read-out: Growth inhibition percentage (GI %)) was 69.3% and the inhibition at 10 µM ([6]; SR) was 53.3%. The inhibition at 10 µM ([7]; HOP-92, read-out: Growth inhibition percentage (GI %)) was 20.9%, the inhibition at 10 µM [8] was 20.8% and the inhibition at 10 µM [9] was 41.2%. The inhibition at 10 µM [10] was -9.28%, the inhibition at 10 µM ([11]; HCT-116, read-out: Growth inhibition percentage (GI %)) was 47% and the inhibition at 10 µM ([12]; HCT-15, read-out: Growth inhibition percentage (GI %)) was 53.5%. It also gave an inhibition at 10 µM ([13]; HT-29, read-out: Growth inhibition percentage (GI %)) of 36.3%, an inhibition at 10 µM ([14]; SF-539, read-out: Growth inhibition percentage (GI %)) of 7.37% and an inhibition at 10 µM ([15]; SNB-75, read-out: Growth inhibition percentage (GI %)) of -0.71%. It also gave an inhibition at 10 µM ([16]; LOX IMVI) of 49.1%, an inhibition at 10 µM ([17]; Malme-3M) of 7.94% and an inhibition at 10 µM ([18]; MDA-MB-435, read-out: Growth inhibition percentage (GI %)) of 26.1%. For the same compound, the inhibition at 10 µM ([19]; UACC-257, read-out: Growth inhibition percentage (GI %)) was 4.25%, the inhibition at 10 µM ([20]; UACC-62, read-out: Growth inhibition percentage (GI %)) was 43.7% and the inhibition at 10 µM ([21]; NCI/ADR-RES) was 32.8%. For the same compound, the inhibition at 10 µM ([22]; 786-0, read-out: Growth inhibition percentage (GI %)) was -6.21%, the inhibition at 10 µM ([23]; ACHN) was 37.8% and the inhibition at 10 µM [24] was 31.9%. For the same compound, the inhibition at 10 µM ([25]; UO-31, read-out: Growth inhibition percentage (GI %)) was 48.4%, the inhibition at 10 µM ([26]; MDA-MB-231, read-out: Growth inhibition percentage (GI %)) was 0.87% and the inhibition at 10 µM ([27]; BT-549, read-out: Growth inhibition percentage (GI %)) was 28.2%. For the same compound, the inhibition at 10 µM [28] was 47.5% and the “Mean GI %” value [29] was 30.94%.

In the case of `CN(C)c1ccc(/C=N/Nc2nc(N/N=C/c3ccc(N(C)C)cc3)nc(N3CCCCC3)n2)cc1` [compound 7g, 4-[(1e)-(2-{4-[(E)-2-{[4-(dimethylamino)phenyl]methylidene}chydrazin-1-yl]-6-(piperidin-1-yl)-1,3,5-triazin-2-yl}hydrazin-1-ylidene)methyl]-N,N-dimethylaniline], the inhibition at 10 µM ([1]; CCRF-CEM (leukaemia), single dose 10 μM) is reported as 74.2%, the GI50 ([1]; CCRF-CEM, five doses (0.01–100 μM), read-out: GI50) is reported as 1.21 µM and the inhibition at 10 µM ([2]; HL-60(TB) (leukaemia), single dose 10 μM, read-out: Growth inhibition percentage (GI %)) is reported as 138%. The GI50 ([2]; HL-60(TB), five doses (0.01–100 μM), read-out: GI50) was 2.2 µM, the inhibition at 10 µM ([3]; K562, K-562 (leukaemia), single dose 10 μM, read-out: Growth inhibition percentage (GI %)) was 96.9% and the GI50 ([3]; K562, K-562, five doses (0.01–100 μM), read-out: GI50) was 0.89 µM. For the same compound, the inhibition at 10 µM ([4]; MOLT-4 (leukaemia), single dose 10 μM, read-out: Growth inhibition percentage (GI %)) was 88%, the GI50 ([4]; MOLT-4, five doses (0.01–100 μM), read-out: GI50) was 2.87 µM and the inhibition at 10 µM ([5]; RPMI-8226 (leukaemia), single dose 10 μM, read-out: Growth inhibition percentage (GI %)) was 67.4%. It also gave a GI50 ([5]; RPMI-8226, five doses (0.01–100 μM), read-out: GI50) of 1.92 µM, an inhibition at 10 µM ([6]; SR (leukaemia), single dose 10 μM) of 114% and a GI50 ([6]; SR, five doses (0.01–100 μM), read-out: GI50) of 0.36 µM. For the same compound, the inhibition at 10 µM ([7]; HOP-92 (non-small cell lung cancer), single dose 10 μM, read-out: Growth inhibition percentage (GI %)) was 16%, the GI50 ([7]; HOP-92, five doses (0.01–100 μM), read-out: GI50) was 1.47 µM and the inhibition at 10 µM [8] was -6.05%. For the same compound, the inhibition at 10 µM [9] was 27.2%, the inhibition at 10 µM [10] was -18.4% and the inhibition at 10 µM ([11]; HCT-116 (colon cancer), single dose 10 μM, read-out: Growth inhibition percentage (GI %)) was 85.1%. It also gave a GI50 ([11]; HCT-116, five doses (0.01–100 μM), read-out: GI50) of 1.64 µM, an inhibition at 10 µM ([12]; HCT-15 (colon cancer), single dose 10 μM, read-out: Growth inhibition percentage (GI %)) of 99.9% and a GI50 ([12]; HCT-15, five doses (0.01–100 μM), read-out: GI50) of 1.87 µM. For the same compound, the GI50 ([13]; HT-29, HT29, five doses (0.01–100 μM), read-out: GI50) was 1.76 µM, the inhibition at 10 µM ([13]; HT-29, HT29 (colon cancer), single dose 10 μM, read-out: Growth inhibition percentage (GI %)) was 105% and the inhibition at 10 µM ([14]; SF-539 (CNS cancer), single dose 10 μM, read-out: Growth inhibition percentage (GI %)) was 112%. It also gave a GI50 ([14]; SF-539, five doses (0.01–100 μM), read-out: GI50) of 1.99 µM, an inhibition at 10 µM ([15]; SNB-75 (CNS cancer), single dose 10 μM, read-out: Growth inhibition percentage (GI %)) of -1.39% and a GI50 ([15]; SNB-75, five doses (0.01–100 μM), read-out: GI50) of 2.8 µM. For the same compound, the inhibition at 10 µM ([16]; LOX IMVI (melanoma), single dose 10 μM) was 173%, the GI50 ([16]; LOX IMVI, five doses (0.01–100 μM), read-out: GI50) was 1.61 µM and the inhibition at 10 µM ([17]; MALME-3M (melanoma), single dose 10 μM) was 167%. It also gave a GI50 ([17]; MALME-3M, five doses (0.01–100 μM), read-out: GI50) of 1.86 µM, an inhibition at 10 µM ([18]; MDA-MB-435 (melanoma), single dose 10 μM, read-out: Growth inhibition percentage (GI %)) of 39.6% and a GI50 ([18]; MDA-MB-435, five doses (0.01–100 μM), read-out: GI50) of 1.94 µM. The inhibition at 10 µM ([19]; UACC-257 (melanoma), single dose 10 μM, read-out: Growth inhibition percentage (GI %)) was -4.45%, the GI50 ([19]; UACC-257, five doses (0.01–100 μM), read-out: GI50) was 1.83 µM and the inhibition at 10 µM ([20]; UACC-62 (melanoma), single dose 10 μM, read-out: Growth inhibition percentage (GI %)) was -0.61%. It also gave a GI50 ([20]; UACC-62, five doses (0.01–100 μM), read-out: GI50) of 1.84 µM, an inhibition at 10 µM ([21]; NCI/ADR-RES (ovarian cancer), single dose 10 μM) of 41.7% and a GI50 ([21]; NCI/ADR-RES, five doses (0.01–100 μM), read-out: GI50) of 3.19 µM. For the same compound, the inhibition at 10 µM ([22]; 786-0, 786-0 (renal cancer), single dose 10 μM, read-out: Growth inhibition percentage (GI %)) was 11.8%, the GI50 ([22]; 786-0, five doses (0.01–100 μM), read-out: GI50) was 1.69 µM and the inhibition at 10 µM ([23]; ACHN (renal cancer), single dose 10 μM) was 67.6%. For the same compound, the GI50 ([23]; ACHN, five doses (0.01–100 μM), read-out: GI50) was 2.68 µM, the inhibition at 10 µM ([24]; SN 12C (renal cancer), single dose 10 μM) was 49.6% and the GI50 ([24]; SN 12C, five doses (0.01–100 μM), read-out: GI50) was 1.87 µM. For the same compound, the inhibition at 10 µM ([25]; UO-31 (renal cancer), single dose 10 μM, read-out: Growth inhibition percentage (GI %)) was 19.7%, the GI50 ([25]; UO-31, five doses (0.01–100 μM), read-out: GI50) was 1.72 µM and the GI50 ([26]; MDA-MB-231/ ATCC, five doses (0.01–100 μM), read-out: GI50) was 1.8 µM. It also gave an inhibition at 10 µM ([26]; MDA-MB-231/ATCC (breast cancer), single dose 10 μM, read-out: Growth inhibition percentage (GI %)) of 31.4%, an inhibition at 10 µM ([27]; BT-549 (breast cancer), single dose 10 μM, read-out: Growth inhibition percentage (GI %)) of -10.6% and a GI50 ([27]; BT-549, five doses (0.01–100 μM), read-out: GI50) of 1.55 µM. The inhibition at 10 µM ([28]; T-47D (breast cancer), single dose 10 μM) was 54%, the GI50 ([28]; T-47D, five doses (0.01–100 μM), read-out: GI50) was 2.18 µM and the “Mean GI %” value [29] was 35.10%.
